Data: US11590093B2, “Kit, composition, and combination therapy for fragile X syndrome” (priority 2018, dated 2023)
“Also recorded” adds a separate entry of the source.

Key:
Conditions in all cases: osmotic minipumps s.c. 15 days, sulindac 5 mg/kg, metoprolol 10 mg/kg, ibudilast 3 mg/kg, sertraline 1 mg/kg, quercetin 1 mg/kg (100 mg/kg in combination), cannabidiol 5 mg/kg
Fmr1 KO2 mice [1] = assay: Social interaction, three-chambered sociability task; type: in vivo
Method: In the three-chambered sociability task, a subject mouse was evaluated for its exploration of a novel social stimulus (novel mouse). The three-chambered social approach task monitors direct social approach behaviors when a subject mouse is presented with the choice of spending time with either a novel mouse or an empty cup. Sociability is defined as the subject mouse spending more time in the chamber containing the mouse than in the empty chamber. Preference for social novelty is defined as spending more time in the chamber with the novel mouse. The apparatus is a rectangular three-chamber box, where each chamber measures 20 cm (length)×40.5 cm (width)×22 cm (height). Dividing walls are made from clear perplex, with small openings (10 cm width×5 cm height) that allow access into each chamber. The three chamber task was lit from below (10 lux). The mice were allowed to freely explore the three-chamber apparatus over three 10 min trials. During the trial one wire cup was placed upside down in one of the side chambers and a novel mouse was placed under another wire cup in the other side chamber (novel mouse stimulus), leaving the middle chamber empty. The location of the novel mouse across trials was counterbalanced to minimize any potential confound due to a preference for chamber location. The time spent exploring the novel mice was scored as exploration ratio.

Fmr1 KO2 mice [2] = tested on: Fmr1 KO2 mice
Source text: (§1) The Fmr1 KO2 it is both, protein and mRNA null. In this study we used Fmr1 KO2 and wild-type (WT) littermates generated on a C57BL/6J background and repeatedly backcrossed onto a C57BL/6J background for more than eight generations.
(§2) There were four treatment groups per compound/compound combination in the study with 10 male mice used per treatment group (all at 8 weeks of age): Group 1: Fmr1 KO2 mice treated with vehicle (Fmr1 KO2-V), Group 2: wild-type littermate mice treated with vehicle (WT-V), Group 3: Fmr1 KO2 mice treated with compounds (Fmr1 KO—[name of drug(s)]) and Group 4: wild-type littermate mice treated with compounds (WT—[name of drug(s)]).
The dependent measure used in contextual fear conditioning was a freezing response following a pairing of an unconditioned stimulus (foot shock), with a conditioned stimulus, a particular context. Freezing is a species-specific response to fear, which has been defined as “absence of movement except for respiration”. This may last for seconds to minutes depending on the strength of the aversive stimulus, the number of presentations, and the degree of learning achieved by the subject. Testing involved placing the animal in a novel environment (dark chamber), providing an aversive stimulus (a 1-sec electric shock, 0.2 mA, to the paws), and then removing it.

Fmr1 KO2 mice [3] = assay: Open field (hyperactivity, locomotor activity); type: in vivo
Source text: as §1, §2
The open-field apparatus was used to test hyperactivity. The apparatus was a gray PVC-enclosed arena […] divided into a 10×10 cm grid. Mice were brought to the experimental room 5-20 min before testing. A mouse was placed into a corner square facing the corner and observed for 3 min. The number of squares entered by the whole body (locomotor activity) were counted. The movement of the mouse around the field was recorded with a video tracking device for 3 min (version NT4.0, Viewpoint).

Fmr1 KO2 mice [4] = tested on: Fmr1 KO2 mice; remark: listed apart in the source
Source text: as §1, §2
The test was performed in individual cages. Normal bedding covered the floor to a depth of 0.5 cm. Each cage was supplied with a “Nestlet,” a 5 cm square of pressed cotton batting (Ancare). Mice were placed individually into the nesting cages 1 hr. before the dark phase, and the results were assessed the next morning. Nest building was scored on a 5 point scale.
Score 1: The Nestlet was largely untouched (>90% intact).
Score 2: The Nestlet was partially torn up (50-90% remaining intact).
Score 3: The Nestlet was mostly shredded but often there was no identifiable nest site: <50% of the Nestlet […]

| Structure (SMILES) | Sociability (exploration of novel mouse) (Fmr1 KO2 mice [1]) | Contextual fear conditioning (learning and memory) (Fmr1 KO2 mice [2]) | Open field: hyperactivity (Fmr1 KO2 mice [3]) | Nesting behavior (Fmr1 KO2 mice [4]) | Sociability (exploration of novel mouse) (Fmr1 KO2 mice [1]; listed as Sulindac) |
| --- | --- | --- | --- | --- | --- |
| COCCc1ccc(OCC(O)CNC(C)C)cc1.O=C(O)C(O)C(O)C(=O)O (racemic) [metoprolol, (±) 1-(Isopropylamino)-3-[p-(β-methoxyethyl)phenoxy]-2-propanol (+)-tartrate salt] | No significant difference was found in sociability; also recorded: partially rescue nesting behavior and sociability | fails to improve the learning deficits | normalized Fmr1 KO2 mice hyperactivity; also recorded: normalize hyperactivity | partially rescued; also recorded: partially rescue nesting behavior and sociability |  |
| O=c1c(O)c(-c2ccc(O)c(O)c2)oc2cc(O)cc(O)c12 [quercetin] |  | neither sulindac nor quercetin alone fully rescues fear conditioning |  |  |  |
| CN[C@H]1CC[C@@H](c2ccc(Cl)c(Cl)c2)c2ccccc21 [sertraline] | neither sulindac nor sertraline alone rescues sociability or fear conditioning | neither sulindac nor sertraline alone rescues sociability or fear conditioning |  |  |  |
| CC1=C(CC(=O)O)c2cc(F)ccc2/C1=C\c1ccc([S+](C)[O-])cc1 (stereo not drawn) [sulindac, (Z)-5-fluoro-2-methyl-1-[[p-(methylsulfinyl)phenyl]methylene]-1H-indene-3-acetic acid] | partially rescuing contextual fear conditioning and sociability; also recorded: neither sulindac nor ibudilast alone rescues sociability; also recorded: neither sulindac nor sertraline alone rescues sociability or fear conditioning | ameliorates the Fmr1 KO deficit in learning and memory; also recorded: partially rescuing contextual fear conditioning and sociability; also recorded: neither sulindac nor sertraline alone rescues sociability or fear conditioning; also recorded: neither sulindac nor quercetin alone fully rescues fear conditioning | normalizes hyperactivity; also recorded: fully rescuing open field and nesting behavior | normalization in nesting behavior; also recorded: fully rescuing open field and nesting behavior | partially improved such impairment |
